From patent US9119884B2, “LLP2A-bisphosphonate conjugates for osteoporosis treatment” (The Regents of the University of California, priority 2010, dated 2015)
Entries after “also recorded” stand apart in the source; their conditions may differ.

How the values were obtained:
[1] = system: bone marrow cells undergoing osteogenic differentiation; assay: Rainbow bead cell-binding assay; type: cell-based, mouse; conditions: cells cultured in osteogenic medium for 7 days, incubated with rainbow beads
Procedure: Mouse MSCs were purchased from Invitrogen (Cat#S1502-100), cultured in osteogenic medium for 7 days and incubated with rainbow beads for one hour. […] Original magnification 10× on the right and 20× on the left of the top panel.
A new color-encoding method that facilitates high-throughput screening of OBOC combinatorial libraries was developed. This method differs from the traditional methods used to monitor integrin expressions in the MSCs, i.e., the use of antibody-based fluorescence-activated cell sorting (FACS) or immunoblotting. In the present method, polymer beads displaying chemical compounds or families of compounds were stained with oil-based organic dyes that are used as coding tags. […] These rainbow beads were prepared in a multiplex manner such that each ligand reacted to one or a series of integrins that were coded one color, See FIG. 7 (Luo, J., et al., J Comb Chem, 2008, 10(4): p. 599-604). This rainbow bead technique was then applied to determine the integrin profile on the cell surfaces.
In FIG. 7, bone marrow cells were cultured in osteogenic medium for 7 days and incubated with rainbow beads. The purple beads that coded with LLP2A, the ligand with high affinity and specificity against α4β1, were covered with layers of cells identified by green arrows. […]

NOD/SCID/MPSVII mice = assay: huMSC transplantation with LLP2A-Ale in immunodeficient mice; type: in vivo, mouse
From the text: Human MSCs (huMSCs) were obtained and injected together with LLP2A-Ale to immunodeficient mice, NOD/SCID/mucopolysaccharidosis type VII (MPSVII). This mouse strain lacked the β-glucuronidase (GUSB) enzyme. The donor cells could be easily detected using biochemical detection of β-glucuronidase (See Meyerrose, T. E., et al., Stem Cells, 2007. 25(1): p. 220-7; Meyerrose, T. E., et al., Stem Cells, 2008. 26(7): p. 1713-22). At three-month of age, the mice received a single intravenous (i.v.) injection of either vehicle (100 μl PBS/mouse), huMSCs (5×10^5/100 μl/PBS/mouse), huMSCs+LLP2A (5 nM/mouse) or huMSCs+LLP2A-Ale (500 ng/mouse; total compound weight 3.5 μg, with alendronate concentration of 500 ng/mouse). The alendronate dose we used for the study was approximately one-fifth of the therapeutic dose for the treatment of osteoporosis (See Colon-Emeric, C. S., JAMA, 2006, 296(24): p. 2968-9; Ma, Y. L., et al., Endocrinology, 2003. 144(5): p. 2008-15). […] HuMSC, as shown by GUSB+red stain, were only present at the trabecular bone surface in the LLP2A-Ale-treated group (lower panel). There was no demonstrable GUSB activity in the lung, liver, kidney and LVB that received PBS (top panels) or huMSCs (middle panel). Cancellous bone mass in the vertebral body was—more than 40% higher in the group treated with MSC+LLP2A-Ale (cancellous bone volume, BV/TV 13.9±2.2%) compared to PBS (BV/TV 9.4±1.7%), MSC (BV/TV 10.2±1.9%) or MSC+LLP2A (BV/TV 10.5±0.5%) controls three weeks after a single injection of huMSC and LLP2A-Ale.
In FIG. 8, Three-month-old MSPVII mice received a single intravenous injection of either of PBS, huMSC (5×10^5) or huMSC+LLP2A or LLP2A-Ale. The mice were sacrificed 24 hours later. Following sacrifice, small portions of organ including lumbar vertebral bodies (LVB) were harvested and frozen in Optimal Cutting Temperature embedding media. The sections were stained using naphthol-AS-BI-β-Dglucuronide (GUSB) as a substrate. Representative sections from lung, liver, kidney and lumbar vertebral (LVB) trabecular bone regions were presented. […] Isolated GUSB-positive cells were also observed within bone marrow of the LVB in […] group.
The NOD-SCID MPSVII strain was the result of extensive backcrossing of the mutant GUSB allele from the B6.C-H-2^bm1/ByBirgus^mps/+ mouse onto the NOD/LtSz-scid background. Animals were bred and maintained at the Stem Cell Department of the UC Davis Medical Center under approved animal care protocols. Affected animals were generated by breeding mice heterozygous for the MPSVII mutation. Homozygous GUSB-deficient pups were identified at birth by biochemical analysis of toe tissue.
Serum levels of the amino terminal propeptide of type 1 procollagen (P1NP), osteocalcin and C-terminal telopeptides of type I collagen (CTX-I) were measured using mouse sandwich ELISA kits from Biomedical Technologies (Stroughton, Mass.) or Immunodiagnostic System (Fountain Hills, Ariz.). The manufacturer's protocols were followed and all samples were assayed in duplicate. A standard curve was generated from each kit and the absolute concentrations were extrapolated from the standard curve. The coefficients of variations (CVs) for inter-assay and intra-assay measurements were less than 10% for all assays and are similar to the manufacturer's references (Yao, W., et al., Arthritis Rheum, 2008, 58(6): p. 1674-86; Yao, W., et al., Arthritis Rheum, 2008, 58(11): p. 3485-3497).
After fixation in 4% paraformaldehyde, the right distal femurs, mid-femurs and the 5th lumbar vertebral bodies were dehydrated in graded concentrations of ethanol and xylene and embedded un-decalcified in methyl methacrylate. The frontal sections (8 μm thick) were cut using a vertical bed microtome (Leica/Jung 2265) and affixed to slides coated with a 2% gelatin solution. Unstained 8-μm-thick sections were used for assessing fluorochrome labeling and dynamic changes in bone. […]

129SvJ mice = type: in vivo, mouse
MSC = MSC osteoblast maturation, function, migration and lineage potentials; type: cell-based
[2] = 5th lumbar vertebral body, three weeks, co-injected with huMSC
[3] = serum, three weeks, co-injected with huMSC
[4] = three weeks following huMSCs transplantation

## Cc1ccccc1NC(=O)Nc1ccc(CC(=O)N[C@@H](CCCCNC(=O)/C=C/c2cccnc2)C(=O)N[C@@H](CCCC(=O)O)C(=O)NC2(C(=O)NCCOCCOCCNC(=O)CCC(=O)NCCOCCOCCNC(=O)CCC(=O)N[C@@H](CCCCNC(=O)[C@H](N)CSC3CC(=O)N(CC4CCC(C(=O)NCCCC(O)(P(=O)(O)O)P(=O)(O)O)CC4)C3=O)C(N)=O)CCCCC2)cc1 (stereo partly drawn) [LLP2A-Ale, LLP2A-Alendronate]
[1]
  cell binding to ligand-coded rainbow beads (affinity): high affinity
NOD/SCID/MPSVII mice; 3 weeks following co-injection with GFP-labeled huMSCs
  osteoblasts and osteocytes at cortical and trabecular bone regions in LVB: increased
NOD/SCID/MPSVII mice; [2]
  mineral apposition rate: significant increases
  osteoblast surface: significant increases
  surface-based bone formation rate (BFR/BS): significant increases
NOD/SCID/MPSVII mice; 24 hours after single i.v. injection of huMSCs with compound
  huMSCs (GUSB+) on/adjacent to bone surface: greatly increased; also recorded: Significant amount; also recorded: seen accumulated in bone marrow, adjacent to both trabecular and periosteal bone surfaces
NOD/SCID/MPSVII mice; mid-femur, three weeks, co-injected with huMSC
  intra-cortical bone remodeling: markedly increased
NOD/SCID/MPSVII mice; [3]
  osteocalcin: significant increases
  procollagen 1 N-terminal propeptide (P1NP): significant increases
NOD/SCID/MPSVII mice; three weeks after single injection of huMSC and compound, vs PBS, MSC, MSC+LLP2A
  cancellous bone mass in the vertebral body, higher compared to controls: more than 40%
NOD/SCID/MPSVII mice; three weeks after transplantation, co-injected with huMSCs
  huMSCs (GUSB+) adjacent to/retained in bone: only seen adjacent to the bone surface; also recorded: retention of the transplanted huMSCs in bone
NOD/SCID/MPSVII mice; [4]
  cortical bone formation: increases
  trabecular bone formation: increases
NOD/SCID/MPSVII mice; three weeks, co-injected with huMSC
  bone formation rates at endocortical and periosteal surfaces of the mid-femur, increase: 50-100%
NOD/SCID/MPSVII mice; vertebral body, three weeks after single injection of huMSC with or without compound
  cancellous bone volume, BV/TV: 13.9±2.2%
129SvJ mice; 10 ng vs 250 ng/mouse
  dose-response at the cortical bone compartment: no dose-responses
129SvJ mice; distal femur metaphysis
  mineral apposition rate: significant increases
  osteoblast surface: significant increases; also recorded: increased
  surface-based bone formation rate: significant increases
129SvJ mice; distal femur microCT, four weeks, two dose levels, vs PBS
  trabecular thickness: increased
129SvJ mice; distal femur microCT, four weeks, LLP2A-Ale at higher dose level (250 ng)
  increase in cancellous bone mass from baseline: ~20%
129SvJ mice; mouse, in vivo
  bridges between adjacent trabeculae: formed bridges between adjacent trabeculae
129SvJ mice; serum
  early osteoblast maturation (P1NP levels): did not change
  osteoblast function (osteocalcin): increased
129SvJ mice; through increasing the thickness of the trabeculae
  cancellous bone mass: increases
129SvJ mice; two days after i.v. injection, lumbar vertebral sections
  proliferating cell populations (BrdU): increased these proliferating cell populations adjacent to bone surface; also recorded: increases
129SvJ mice; young normal mice
  cancellous bone formation: increases
  cortical bone formation: increases
MSC
  MSC chondrogenic or adipogenic potentials: without affecting
  MSC osteoblast maturation, function and migration: increases
